pIC50: −log10 of the molar value. Where a name gives a salt, the structure may show the parent alone.
Each compound was assayed against T1, ACC1 from rat liver (Rattus norvegicus, UniProt P11497) (assay: Direct inhibition of ACC1 activity (14C-bicarbonate incorporation)). Settings: ACC1 from rat liver.
T1 construct: The livers (for ACC1 preparation) or skeletal muscle tissue (for ACC2 preparation) are removed; from tissue; host or cells: liver of male CD rats (fasted, then fed a high sucrose diet)
Format: biochemical
Outline: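 ACC1 partially purified from livers of fasted/sucrose-refed male rats by PEG and ammonium sulfate fractionation, then preincubated 30 min at 37°C with 10 mM citrate and 1.0 mM MgCl2. Reaction ran 7 min at 37°C, stopped with HCl; acid-stable radioactivity counted by scintillation; HCl-first tubes served as blanks.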

| SMILES | pIC50 |
| --- | --- |
| O=C(O)c1ccc2c(c1)C(=O)CC1(CCN(C(=O)c3cccc(-c4cc[nH]n4)c3)CC1)O2 [Ex. N1, 4-oxo-1′-[3-(1H-pyrazol-3-yl)benzoyl]-3,4-dihydrospiro[chromene-2,4′-piperidine]-6-carboxylic acid trifluoroacetic acid salt] | 6.05 |

Same assay, conditions: Table of Examples M1-M36

| SMILES | pIC50 |
| --- | --- |
| O=C1CC2(CCN(C(=O)c3cccc(-c4cc[nH]n4)c3)CC2)Oc2ccc(OC(F)(F)F)cc21 [Ex. M13, 1′-[3-(1H-pyrazol-3-yl)benzoyl]-6-(trifluoromethoxy)spiro[chromene-2,4′-piperidin]-4(3H)-one] | 6.66 |
| COc1ccc2c(c1F)C(=O)CC1(CCN(C(=O)c3cccc(-c4cc[nH]n4)c3)CC1)O2 [Ex. M14, 5-fluoro-6-methoxy-1′-[3-(1H-pyrazol-3-yl)benzoyl]spiro[chromene-2,4′-piperidin]-4(3H)-one] | 6.65 |
| O=C1CC2(CCN(C(=O)c3cccc(-c4cc[nH]n4)c3)CC2)Oc2cc(Cl)ccc21 [Ex. M15, 7-chloro-1′-[3-(1H-pyrazol-3-yl)benzoyl]spiro[chromene-2,4′-piperidin]-4(3H)-one] | 6.63 |
| O=C1CC2(CCN(C(=O)c3cccc(-c4cc[nH]n4)c3)CC2)Oc2cc(Cl)cc(Cl)c21 [Ex. M16, 5,7-dichloro-1′-[3-(1H-pyrazol-3-yl)benzoyl]spiro[chromene-2,4′-piperidin]-4(3H)-one] | 6.50 |
| CC(C)NC(=O)c1ccc2c(c1)C(=O)CC1(CCN(C(=O)c3cccc(-c4cc[nH]n4)c3)CC1)O2 [Ex. M17, N-isopropyl-4-oxo-1′-[3-(1H-pyrazol-3-yl)benzoyl]3,4-dihydrospiro[chromene-2,4′-piperidine]-6-carboxamide] | 6.46 |
| COc1c(Cl)ccc2c1C(=O)CC1(CCN(C(=O)c3cccc(-c4cc[nH]n4)c3)CC1)O2 [Ex. M18, 6-chloro-5-methoxy-1′-[3-(1H-pyrazol-3-yl)benzoyl]spiro[chromene-2,4′-piperidin]-4(3H)-one] | 6.43 |
| O=C1CC2(CCN(C(=O)c3cccc(-c4cc[nH]n4)c3)CC2)Oc2ccc(C(F)(F)F)cc21 [Ex. M19, 1′-[3-(1H-pyrazol-3-yl)benzoyl]-6-(trifluoromethyl)spiro[chromene-2,4′-piperidin]-4(3H)-one] | 6.38 |
| COc1cc2c(c(OC)c1OC)C(=O)CC1(CCN(C(=O)c3cccc(-c4cc[nH]n4)c3)CC1)O2 [Ex. M21, 5,6,7-trimethoxy-1′-[3-(1H-pyrazol-3-yl)benzoyl]spiro[chromene-2,4′-piperidin]-4(3H)-one] | 6.36 |
| Cc1ccc2c(c1)C(=O)CC1(CCN(C(=O)c3cccc(-c4cc[nH]n4)c3)CC1)O2 [Ex. M23, 6-methyl-1′-[3-(1H-pyrazol-3-yl)benzoyl]spiro[chromene-2,4′-piperidin]-4(3H)-one] | 6.32 |
| O=C1CC2(CCN(C(=O)c3cccc(-c4cc[nH]n4)c3)CC2)Oc2cc(F)c(Cl)cc21 [Ex. M24, 6-chloro-7-fluoro-1′-[3-(1H-pyrazol-3-yl)benzoyl]spiro[chromene-2,4′-piperidin]-4(3H)-one] | 6.32 |
| COc1ccc2c(c1)OC1(CCN(C(=O)c3cccc(-c4cc[nH]n4)c3)CC1)CC2=O [Ex. M25, 7-methoxy-1′-[3-(1H-pyrazol-3-yl)benzoyl]spiro[chromene-2,4′-piperidin]-4(3H)-one] | 6.32 |
| COc1cccc2c1C(=O)CC1(CCN(C(=O)c3cccc(-c4cc[nH]n4)c3)CC1)O2 [Ex. M27, 5-methoxy-1′-[3-(1H-pyrazol-3-yl)benzoyl]spiro[chromene-2,4′-piperidin]-4(3H)-one] | 6.26 |
| CN(C)C(=O)c1ccc2c(c1)C(=O)CC1(CCN(C(=O)c3cccc(-c4cc[nH]n4)c3)CC1)O2 [Ex. M29, N,N-dimethyl-4-oxo-1′-[3-(1H-pyrazol-3-yl)benzoyl]-3,4-dihydrospiro[chromene-2,4′-piperidine]-6-carboxamide] | 6.24 |
| O=C1CC2(CCN(C(=O)c3cccc(-c4cc[nH]n4)c3)CC2)Oc2ccc(Cl)cc21 [Ex. M30, 6-Chloro-1′-[3-(1H-pyrazol-3-yl)benzoyl]spiro[chromene-2,4′-piperidin]-4(3H)-one] | 6.21 |
| COc1cc2c(cc1OC)C(=O)CC1(CCN(C(=O)c3cccc(-c4cc[nH]n4)c3)CC1)O2 [Ex. M31, 6,7-Dimethoxy-1′-[3-(1H-pyrazol-3-yl)benzoyl]spiro[chromene-2,4′-piperidin]-4(3H)-one] | 6.16 |
| O=C1CC2(CCN(C(=O)c3cccc(-c4cc[nH]n4)c3)CC2)Oc2ccc(C(=O)N3CCOCC3)cc21 [Ex. M32, 6-(morpholin-4-ylcarbonyl)-1′-[3-(1H-pyrazol-3-yl)benzoyl]spiro[chromene-2,4′-piperidin]-4(3H)-one] | 6.13 |
| O=C1CC2(CCN(C(=O)c3cccc(-c4cc[nH]n4)c3)CC2)Oc2cc(F)ccc21 [Ex. M34, 7-Fluoro-1′-[3-(1H-pyrazol-3-yl)benzoyl]spiro[chromene-2,4′-piperidin]-4(3H)-one] | 6.09 |
| O=C1CC2(CCN(C(=O)c3cccc(-c4cc[nH]n4)c3)CC2)Oc2c(Cl)cc(Cl)cc21 [Ex. M35, 6,8-dichloro-1′-[3-(1H-pyrazol-3-yl)benzoyl]spiro[chromene-2,4′-piperidin]-4(3H)-one] | 5.85 |
| O=C1CC2(CCN(C(=O)c3cccc(-c4cc[nH]n4)c3)CC2)Oc2cc(Cl)c(F)cc21 [Ex. M36, 7-chloro-6-fluoro-1-[3-(1H-pyrazol-3-yl)benzoyl]spiro[chromene-2,4′-piperidin]-4(3H)-one] | 5.70 |

Same assay, conditions: Table of Examples O1-O4

| SMILES | pIC50 |
| --- | --- |
| O=C1CC2(CCN(C(=O)c3cccc(-c4ccn[nH]4)c3)CC2)Oc2ccccc21 [Ex. O1, 1′-[3-(1H-pyrazol-5-yl)benzoyl]spiro[chromene-2,4′-piperidin]-4(3H)-one] | 6.04 |
| COc1cc(Cl)c2c(c1)OC1(CCN(C(=O)c3cccc(-c4ccn[nH]4)c3)CC1)CC2=O [Ex. O2, 5-chloro-7-methoxy-1′-[3-(1H-pyrazol-5-yl)benzoyl]spiro[chromene-2,4′-piperidin]-4(3H)-one] | 7.26 |
| COc1cc(Cl)cc2c1C(=O)CC1(CCN(C(=O)c3cccc(-c4ccn[nH]4)c3)CC1)O2 [Ex. O3, 7-chloro-5-methoxy-1′-[3-(1H-pyrazol-5-yl)benzoyl]spiro[chromene-2,4′-piperidin]-4(3H)-one] | 6.34 |
| COc1cc(C)c2c(c1)OC1(CCN(C(=O)c3cccc(-c4ccn[nH]4)c3)CC1)CC2=O [Ex. O4, 7-methoxy-5-methyl-1′-[3-(1H-pyrazol-5-yl)benzoyl]spiro[chromene-2,4′-piperidin]-4(3H)-one] | 6.33 |

Same assay, conditions: Table of Examples P1-P15

| SMILES | pIC50 |
| --- | --- |
| Cc1cc2c(cc1C)C(=O)CC1(CCN(C(=O)c3cccc(-c4cc(C(F)(F)F)[nH]n4)c3)CC1)O2 [Ex. P1, 6,7-dimethyl-1′-{3-[5-(trifluoromethyl)-1H-pyrazol-3-yl]benzoyl}spiro-[chromene-2,4′-piperidin]-4(3H)-one] | 6.67 |
| Cc1cc2c(cc1Cl)C(=O)CC1(CCN(C(=O)c3cccc(-c4cc(C(F)(F)F)[nH]n4)c3)CC1)O2 [Ex. P2, 6-chloro-7-methyl-1′-{3-[5-(trifluoromethyl)-1H-pyrazol-3-yl]benzoyl}spiro[chromene-2,4′-piperidin]-4(3H)-one trifluoroacetic acid salt] | 6.37 |
| Cc1cc2c(cc1C)C(=O)CC1(CCN(C(=O)c3cc(-c4ccn(C)n4)ccc3Cl)CC1)O2 [Ex. P3, 1′-[2-chloro-5-(1-methyl-1H-pyrazol-3-yl)benzoyl]-6,7-dimethylspiro[chromene-2,4′-piperidin]-4(3H)-one] | > 5.52 |
| Cc1cc2c(cc1C)C(=O)CC1(CCN(C(=O)c3cc(-c4cc[nH]n4)ccc3F)CC1)O2 [Ex. P4, 1′-[2-fluoro-5-(1H-pyrazol-3-yl)benzoyl]-6,7-dimethylspiro[chromene-2,4′-piperidin]-4(3H)-one trifluoroacetic acid salt] | > 5.52 |
| Cc1cc2c(cc1C)C(=O)CC1(CCN(C(=O)c3cc(-c4cc[nH]n4)ccc3Cl)CC1)O2 [Ex. P5, 1′-[2-chloro-5-(1H-pyrazol-3-yl)benzoyl]-6,7-dimethylspiro[chromene-2,4′-piperidin]-4(3H)-one trifluoroacetic acid salt] | > 5.52 |
| Cc1cc2c(cc1C)C(=O)CC1(CCN(C(=O)c3cc(-c4cc[nH]n4)ccc3O)CC1)O2 [Ex. P6, 1′-[2-hydroxy-5-(1H-pyrazol-3-yl)benzoyl]-6,7-dimethylspiro[chromene-2,4′-piperidin]-4(3H)-one trifluoroacetic acid salt] | > 5.52 |
| CCOc1ccc(-c2cc[nH]n2)cc1C(=O)N1CCC2(CC1)CC(=O)c1cc(C)c(C)cc1O2 [Ex. P7, 1′-[2-ethoxy-5-(1H-pyrazol-3-yl)benzoyl]-6,7-dimethylspiro[chromene-2,4′-piperidin]-4(3H)-one trifluoroacetic acid salt] | > 5.52 |
| CCOc1ccc(-c2cc[nH]n2)cc1C(=O)N1CCC2(CC1)CC(=O)c1cc(C)c(C)cc1O2 [Ex. P8, 1′-[2-ethoxy-5-(1H-pyrazol-3-yl)benzoyl]-6,7-dimethylspiro[chromene-2,4′-piperidin]-4(3H)-one] | 6.21 |
| CCOc1ccc(-c2cc[nH]n2)cc1C(=O)N1CCC2(CC1)CC(=O)c1cc(Cl)c(C)cc1O2 [Ex. P9, 6-chloro-1′-[2-ethoxy-5-(1H-pyrazol-3-yl)benzoyl]-7-methylspiro[chromene-2,4′-piperidin]-4(3H)-one] | 5.97 |
| Cc1cc2c(cc1C)C(=O)CC1(CCN(C(=O)c3cc(-c4ccnn4C)ccc3Cl)CC1)O2 [Ex. P10, 1′-[2-chloro-5-(1-methyl-1H-pyrazol-5-yl)benzoyl]-6,7-dimethylspiro[chromene-2,4′-piperidin]-4(3H)-one] | > 5.52 |
| Cc1cc2c(cc1C)C(=O)CC1(CCN(C(=O)c3cccc(-n4cccn4)c3)CC1)O2 [Ex. P11, 6,7-Dimethyl-1′-[3-(1H-pyrazol-1-yl)benzoyl]spiro[chromene-2,4′-piperidin]-4(3H)-one] | 6.40 |
